For the data set the following is noted: surfactant applied for 2 minutes to plates coated with 100 μg/ml LPS, absorbance 620 nm, FIG. 6.

Read-outs that look alike come from different tables or passages of the source.

Procedure: To measure the removal of bacterial lipopolysaccharide, a HEK-Blue LPS detection kit (InvivoGen, San Diego, Calif., USA) was used. 24-well plates were coated with 100 μg/ml of an LPS standard (E. coli K12 LPS) and allowed to stand at 4° C. for 8 hours. […] HEK-Blue cells were dispersed in detection media, after which the cells were seeded onto the plates at a density of 4×10^4 cells/well and cultured at 37° C. for 24 hours. The absorbance at a wavelength of 620 nm was measured using a microplate reader (BIO-TEK, Winooski, Vt., USA). The ratio of the remaining LPS standard was calculated using the absorbance of a lipopolysaccharide-free water-coated well as a blank.

For the substance Sorbitan monooleate [Span 80], the “relative ratio of the remaining LPS standard” value is “higher in the order of polyoxyethylene (HLB 10)<Tween 20 (HLB 16)<Span 80 (HLB 4)”.
For the substance Tween 20, the “relative ratio of the remaining LPS standard” value is on record as “higher in the order of polyoxyethylene (HLB 10)<Tween 20 (HLB 16)<Span 80 (HLB 4)”.
As to octyl phenol ethoxylate [Triton X-100], the “relative ratio of the remaining LPS standard” value was “the ratio of the remaining LPS standard was the lowest”. Moreover, the “relative ratio of the remaining LPS standard” value (listed as octyl phenol ethoxylate) is on record as “has the best effect on the removal of lipopolysaccharide”.

Source of the values: US20130224128A1, “DENTAL CLEANSER COMPOSITION FOR IMPROVING ADHESION TO TEETH” (NANO INTELLIGENT BIOMEDICAL ENGINEERING CO., LTD., priority 2010, published 2013).
